Measurements as given in patent publication US7601868B2, “Amine derivative” (Takeda Pharmaceutical Company Limited, priority 2003, dated 2009).

Target: T1, SLC-1 (Homo sapiens, UniProt Q99705)
T1 construct: expressed in transfected cells; host or cells: CHO cells (human SLC-1 clone 57 / rat SLC-1 clone 44), membrane fraction
Assay: Antagonistic activity using GTPγS binding assay (SLC-1 expression CHO cell membrane fraction, MCH-stimulated)
Format: biochemical, human/rat
Settings: [35S]-GTPγS binding to SLC-1 expression CHO cell membrane fraction in the presence of MCH, 25° C., 1 hr; read-out: Inhibitory activity (IC50: nM)
Procedure: Determination of Antagonistic Activity of Test Compound Using GTP γ S Binding Assay
Using human SLC-1 expression CHO cell clone 57 and rat SLC-1 expression CHO cell clone 44 described in WO01/82925, SLC-1 expression CHO cell membrane fractions were prepared by the following method. In phosphate buffered saline (pH 7.4) supplemented with 5 mM EDTA (ethylenediamine tetraacetic acid) were suspended human and rat SLC-1 expression CHO cells (1×10^8) and centrifuged. Homogenate buffer (10 ml, 10 mM NaHCO3, 5 mM EDTA, pH 7.5) was added to the pellets of the cells and, using Polytron Homogeniser, the mixture was homogenated. The supernatant obtained after centrifugation at 400×g for 15 min was further centrifuged at 100,000×g for 1 hr to give precipitate of the membrane fraction. […]
The antagonistic activity of the test compound was determined as follows. […] Liquid scintillator (50 ml) was added to the glass filter and the residual radioactivity was determined by a liquid scintillation counter. Binding inhibition (%)=(radioactivity upon addition of test compound and MCH−radioactivity upon addition of DMSO solution)/(radioactivity upon addition of MCH−radioactivity upon addition of DMSO solution)×100
From the binding inhibition (%), IC50 of the test compound was calculated.

T1 sequence (Q99705 whole entry, species assumed): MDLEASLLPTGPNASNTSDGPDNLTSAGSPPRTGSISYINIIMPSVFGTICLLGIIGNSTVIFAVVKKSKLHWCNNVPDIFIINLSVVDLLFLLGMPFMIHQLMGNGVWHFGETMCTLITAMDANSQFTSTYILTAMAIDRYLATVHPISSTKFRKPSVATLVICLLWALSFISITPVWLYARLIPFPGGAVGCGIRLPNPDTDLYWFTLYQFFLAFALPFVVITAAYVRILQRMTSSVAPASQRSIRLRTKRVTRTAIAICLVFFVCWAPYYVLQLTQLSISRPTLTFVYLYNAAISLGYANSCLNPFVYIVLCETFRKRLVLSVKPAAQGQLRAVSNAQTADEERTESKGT

## CC(c1ccc(CCNC(=O)c2ccc(-c3ccc(Cl)cc3)cc2)cc1)N1CCCCCC1 (stereo not shown) [Example 67, N-(2-{4-[1-(1-azepanyl)ethyl]phenyl}ethyl)-4′-chloro[1,1′-biphenyl]-4-carboxamide]
  IC50: 3 nM
